Measured values from the supplement of paper PMC10307832.

Experiments:
Experiment in all cases: relative viability (nuclei count vs DMSO), 5 days (fraction); higher = more cells survive
GSK-J4 + Dasatinib = compound: CCOC(=O)CCNc1cc(N2CCc3ccccc3CC2)nc(-c2ccccn2)n1 [GSK-J4] + Cc1nc(Nc2ncc(C(=O)Nc3c(C)cccc3Cl)s2)cc(N2CCN(CCO)CC2)n1 [Dasatinib] (partner 0.075 µM)
Procedure, shortened: (§1)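 Lung cancer cell lines in 1536-well plates got either a single drug or a fixed anchor-drug dose together with five library-drug doses (not always all listed) in √10 steps, by pin tool, on the day after seeding. Nuclei were counted after 5 days, and relative viability is the treated-to-vehicle ratio of nuclei counts. Values are medians of duplicate plates.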

GSK-J4 + Linsitinib = compound: CCOC(=O)CCNc1cc(N2CCc3ccccc3CC2)nc(-c2ccccn2)n1 [GSK-J4] + C[C@]1(O)C[C@@H](c2nc(-c3ccc4ccc(-c5ccccc5)nc4c3)c3c(N)nccn32)C1 [Linsitinib] (partner 1 µM)
Procedure, shortened: as §1

GSK-J4 + Pemetrexed = compound: CCOC(=O)CCNc1cc(N2CCc3ccccc3CC2)nc(-c2ccccn2)n1 [GSK-J4] + Nc1nc2[nH]cc(CCc3ccc(C(=O)N[C@@H](CCC(=O)O)C(=O)O)cc3)c2c(=O)[nH]1 [Pemetrexed] (partner 0.2 µM)
Procedure, shortened: as §1

AZ3146 + Lapatinib = compound: CN1CCC(CC1)OC2=CC(=C(C=C2)NC3=NC=C4C(=N3)N(C(=O)N4C)C5CCCC5)OC [AZ3146] + CS(=O)(=O)CCNCc1ccc(-c2ccc3ncnc(Nc4ccc(OCc5cccc(F)c5)c(Cl)c4)c3c2)o1 [Lapatinib] (partner 2 µM)
Procedure, shortened: as §1

| Cell Line | relative viability (GSK-J4 + Dasatinib; first compound 0.5 µM) | relative viability (GSK-J4 + Dasatinib; first compound 1.581 µM) | relative viability (GSK-J4 + Dasatinib; first compound 5 µM) | relative viability (GSK-J4 + Dasatinib; first compound 15.81 µM) | relative viability (GSK-J4 + Dasatinib; first compound 50 µM) | relative viability (GSK-J4 + Linsitinib; first compound 0.5 µM) | relative viability (GSK-J4 + Linsitinib; first compound 5 µM) | relative viability (GSK-J4 + Linsitinib; first compound 15.81 µM) | relative viability (GSK-J4 + Linsitinib; first compound 50 µM) | relative viability (GSK-J4 + Pemetrexed; first compound 0.5 µM) | relative viability (GSK-J4 + Pemetrexed; first compound 1.581 µM) | relative viability (GSK-J4 + Pemetrexed; first compound 5 µM) | relative viability (GSK-J4 + Pemetrexed; first compound 15.81 µM) | relative viability (GSK-J4 + Pemetrexed; first compound 50 µM) | relative viability (AZ3146 + Lapatinib; first compound 0.08 µM) | relative viability (AZ3146 + Lapatinib; first compound 0.253 µM) | relative viability (AZ3146 + Lapatinib; first compound 0.8 µM) | relative viability (AZ3146 + Lapatinib; first compound 2.53 µM) | relative viability (AZ3146 + Lapatinib; first compound 8 µM) | relative viability (GSK-J4 + Linsitinib; first compound 1.581 µM) |
| --- | --- | --- | --- | --- | --- | --- | --- | --- | --- | --- | --- | --- | --- | --- | --- | --- | --- | --- | --- | --- |
| NCI-H23 | 0.872 | 0.73 | 0.723 | 0.723 | 0.617 | 0.557 | 0.694 | 0.54 | 0.594 | 0.679 | 0.525 | 0.653 | 0.568 | 0.598 | 1.11 | 1.22 | 1.14 | 1.31 | 0.915 | – |
| NCI-H441 | 0.537 | 0.537 | 0.735 | 0.516 | 0.358 | 0.664 | 0.602 | 0.532 | 0.511 | 0.26 | 0.226 | 0.303 | 0.249 | 0.284 | – | – | – | – | – | 0.325 |
| NCI-H2009 | 0.298 | 0.276 | 0.166 | 0.265 | 0.189 | 1.19 | 0.983 | 1.17 | 0.947 | 0.964 | 0.846 | 0.769 | 0.997 | 0.576 | 0.817 | 0.975 | 1.06 | 1.09 | 0.409 | 0.873 |
| NCI-H2170 | 0.542 | 0.744 | 0.643 | 0.475 | 0.536 | – | – | – | – | 0.237 | 0.292 | 0.243 | 0.252 | 0.273 | 0.265 | 0.283 | 0.252 | 0.273 | 0.277 | – |
| NCI-H1299 | – | – | – | – | – | 0.979 | 0.813 | 0.962 | 0.988 | – | – | – | – | – | 0.892 | 0.97 | 0.985 | 0.958 | 0.787 | 0.881 |
| HCC-78 | 0.562 | 0.374 | 0.651 | 0.3 | 0.319 | 0.44 | 0.701 | – | 0.484 | 0.916 | 0.841 | 0.929 | 0.957 | 0.929 | – | 0.488 | 0.762 | 0.864 | 0.574 | 0.499 |
| NCI-H3122 | 0.826 | 0.722 | 0.788 | 0.864 | 0.789 | 0.939 | 1.04 | 0.998 | 0.98 | 0.205 | 0.201 | 0.201 | 0.206 | 0.19 | 1.09 | 1.04 | 0.952 | 1 | 1.02 | 1.04 |
| NCI-H2085 | 0.288 | 0.273 | 0.388 | 0.223 | 0.377 | 0.801 | 0.926 | 0.874 | 0.771 | 0.899 | 0.789 | 0.699 | 0.883 | 0.961 | 0.731 | 0.752 | 0.7 | 0.823 | 0.699 | 0.812 |
| HCC-366 | 0.597 | 0.537 | – | 0.415 | 0.501 | 0.622 | – | 0.478 | 0.437 | 0.148 | 0.145 | – | 0.229 | 0.169 | 1 | 1.1 | 1.01 | 0.964 | 0.693 | 0.547 |
